Results published in paper PMC4698308, “A new amino acid substitution (Ala-205-Phe) in acetolactate synthase (ALS) confers broad spectrum resistance to ALS-inhibiting herbicides” (Planta, 2015).
Read-outs that look alike come from different tables or passages of the source.

How the values were obtained:
[1] = molecular target: T1, recombinant Arabidopsis thaliana ALS wild-type enzyme (WT—sensitive) (Arabidopsis thaliana, UniProt P17597); assay: biochemical
T1 construct: Protein constructs contained an 85 amino acid N-terminal deletion (chloroplast transit peptide); Hexa-histidine tag (N); made in house
Method: (§1) Effects of SNPs identified in sequencing analysis on ALS activity were studied using A. thaliana. The ALS gene from A. thaliana and derivatives thereof were de novo synthesized and subcloned into pET-24d(+) (Life Technologies. Grand Island, NY, USA) using NcoI and XhoI restriction sites. Protein constructs contained an 85 amino acid N-terminal deletion (chloroplast transit peptide) and the addition of an N-terminal Hexa-histidine tag to facilitate purification.
(§2) Lysis was performed by at least two passes through a fluidizer, followed by centrifuging at 80000×g for 30 min at 4 °C. […] Fractions containing ALS protein were pooled and stored at −20 °C.
(§3) Inhibitors, purchased from Sigma as Pestanal standards (Sigma-Aldrich, Deisenhofen, Germany), were dissolved in DMSO and added to the reaction mixture. Inhibitors evaluated included imidazolinone, sulfonylurea, triazolopyrimidines, sulfonylamino-carbonyl- triazolinones, and pyrimidinyl (thio) benzoate herbicides. The reaction mixture was incubated at 30 °C for 60 min and stopped with 70 µl of H2SO4 (3 M). The reaction was then heated to 56 °C for 15 min to convert acetolactate into acetoin. […] For each inhibitor, resistance factors were calculated by dividing IC50 values for mutant and sensitive ALS.

[2] = system: recombinant Arabidopsis thaliana ALS variant A205F; type: biochemical; settings: IC50 mutant divided by IC50 sensitive ALS; max inhibitor concentration 1.00 × 10^−04 M
Method: as §1, §2, §3

[3] = system: recombinant Arabidopsis thaliana ALS variant A205V; type: biochemical; settings: IC50 mutant divided by IC50 sensitive ALS; max inhibitor concentration 1.00 × 10^−04 M
Method: as §1, §2, §3

[4] = system: recombinant Arabidopsis thaliana ALS variant W574L; type: biochemical; settings: IC50 mutant divided by IC50 sensitive ALS; max inhibitor concentration 1.00 × 10^−04 M
Method: as §1, §2, §3

[5] = system: annual bluegrass (Poa annua L.); assay: Whole plant non-target site resistance experiment with P450 inhibitors malathion or PBO (control 21 days after treatment); type: in vivo; settings: for Annual bluegrass control S: susceptible (S)
Method: Additional experiments were conducted during March–April 2015 to determine if non-target site based mechanisms conferred resistance to ALS inhibitors in our annual bluegrass population, POAAN-R3. Plants (RP6, RP7, and S) were cultured in plastic conical containers as previously described and allowed to acclimate to the glasshouse for 18 days prior to initiating two experiments.
In the first experiment, resistant (RP6, RP7) and susceptible (S) plants were treated with foramsulfuron at 29 g ha^−1, trifloxysulfuron (Monument. Syngenta Professional Products. Greensboro, NC, USA) at 27.8 g ha^−1, imazaquin (Image. BASF Corporation. Research Triangle Park, NC) at 27.5 g ha^−1, or bispyribac-sodium (Velocity. Valent USA Corporation. Walnut Creek, CA, USA) at 70 g ha^−1. All herbicides were applied alone or in combination with either malathion (Spectrum Group. St. Louis, MO, USA) at 1000 g ha^−1 or piperonyl butoxide (Sigma Aldrich. St. Louis, MO, USA) at 2100 g ha^−1. Malathion and piperonyl butoxide (PBO) inhibit cytochrome P450 monooxygenases involved in metabolism of ALS inhibiting herbicides and are commonly used at the application rates tested herein to evaluate non-target site based resistance mechanisms in weeds (Burnet et al. [1994]; Christopher et al. [1992]; Yu and Powles [2014b]; Rao et al. [1995]). All herbicides were mixed in water carrier and included non-ionic surfactant at 0.25 % v/v. Malathion and PBO were mixed with methanol and de-ionized water (50:50) and applied 60 min prior to herbicide application using a previously described enclosed spray chamber on 13 February 2015.
Annual bluegrass control was visually assessed on a 0 (i.e., no control) to 100 % (i.e., complete kill) scale relative to the non-treated 21 days after treatment. After all control data had been collected, aboveground biomass was harvested from each plastic conical container at the soil line using scissors, dried at 100 °C, and weighed. Treatments were arranged as a 3 × 5 × 3 factorial with three plant selections (RP6, RP7, S), five herbicides (foramsulfuron, trifloxysulfuron, imazaquin, bispyribac-sodium, non-treated) and three P450 inhibitor treatments (malathion, PBO, non-treated) in a completely randomized design with four replications and repeated in separate glasshouses during February 2015.

[6] = system: annual bluegrass (Poa annua L.); assay: Whole plant confirmation of target-site resistance (visual control and dry biomass 28 days after treatment); type: in vivo
Method: Progeny of all POAAN-R3 plants subjected to genetic sequencing (RP1–RP8) were surface seeded into separate 10.2 × 10.2 cm greenhouse pots (Dillen Products/Myers Industries, Inc. Middlefield, OH, USA.) filled with a peat moss growing medium (ProMix BX Mycorrhizae. Premier Tech Horticulture, Quakertown, PA, USA) on 5 January 2015. The susceptible annual bluegrass population (S) included in our sequencing analysis was also seeded in the same fashion.
After seeding, pots were placed inside a growth chamber (Conviron A1000. Controlled Environments Inc, Hendersonville, NC) configured to provide 14 h day at 19 °C and a 10 h night at 10 °C. Light intensity inside the chamber averaged 296 μmol m^−2 s^−1. Irrigation was applied to each pot daily using distilled water and a misting nozzle. Annual bluegrass emergence was first noted on 16 January 2015. Plants remained inside the growth chamber until 26 January 2015. On this date, seedlings of each plant (RP1–RP8, S) were transplanted into individual 164 cm^3 plastic conical containers (SC10 Super Cell Cone-tainer. Stuewe and Sons. Tangent, OR 97389) filled with Sequatchie silt loam (fine-loamy, siliceous, semiactive, thermic humic Hapludult) measuring 6.2 in soil pH and 2.1 % in organic matter content. Transplants were replicated such that 32 plastic conical containers were created for each annual bluegrass plant analyzed in previous experiments (RP1–RP8, S). Immediately after transplanting, plastic conical containers were placed in a glasshouse located at the University of Tennessee (Knoxville, TN, USA; 35.56, 83.56). Peak light intensity in this glasshouse averaged 714 μmol m^−2 s^−1 with day/night temperatures averaging 27/17 °C. Irrigation was applied daily using an overhead misting system and plants were not clipped prior to initiating this study.
Plants were allowed to acclimate to this glasshouse environment for 10 days prior to being treated with foramsulfuron (Revolver. Bayer Environmental Sciences. Research Triangle Park, NC, USA) at 29 g ha^−1, imazamox (Clearcast. BASF Corporation. Research Triangle Park, NC) at 140 g ha^−1, or simazine (Princep 4L. Syngenta Professional Products. Greensboro, NC) at 1120 g ha^−1. Per label recommendations, imazamox and simazine treatments included a non-ionic surfactant (Activator-90. Loveland Products Inc. Greeley, CO, USA) at 0.25 % v/v. All treatments were applied in an enclosed spray chamber (Generation III track sprayer. DeVries Manufacturing, Hollandale, MN, USA) using a water carrier at 215 L ha^−1 through an 8004 EVS nozzle (TeeJet, Technologies, Spraying Systems Co., Glendale Heights, IL, USA). These herbicide treatments were selected to confirm results of genetic sequencing that RP1–RP8 were resistant to sulfonylurea, imidazolinone, and photosystem II inhibiting herbicides. A non-treated control treatment was included with each resistant (RP1–RP8) and susceptible (S) plant for comparison. Herbicides were applied on 5 February 2015 when plants were at a two-to-three leaf stage, prior to annual bluegrass tiller formation.
Annual bluegrass control was visually assessed on a 0 (i.e., no control) to 100 % (i.e., complete kill) scale relative to the non-treated 28 days after treatment. After all control data had been collected, aboveground biomass was harvested from each plastic conical container at the soil line using scissors, dried at 100 °C for 3 days, and weighed.
Treatments were arranged as a 9 × 4 factorial with nine plant selections (i.e., RP1–RP8, S) and four herbicide treatments (i.e., foramsulfuron, imazamox, simazine, non-treated) in a completely randomized design with four replications and repeated in time and space during February 2015. Plants were the same age during both experimental runs.

[7] = system: annual bluegrass population POAAN-R3; set-up: method as in Brosnan et al. [2015]; settings: ref Brosnan et al. [2015], cited from earlier work
[8] = RP6, herbicide alone, foramsulfuron 29, trifloxysulfuron 27.8, imazaquin 27.5, bispyribac-sodium 70 g ha^−1
[9] = RP6, herbicide with PBO 2100 g ha^−1 applied 60 min prior
[10] = RP6, herbicide with malathion 1000 g ha^−1 applied 60 min prior
[11] = RP7, herbicide alone, foramsulfuron 29, trifloxysulfuron 27.8, imazaquin 27.5, bispyribac-sodium 70 g ha^−1
[12] = RP7, herbicide with PBO 2100 g ha^−1 applied 60 min prior
[13] = RP7, herbicide with malathion 1000 g ha^−1 applied 60 min prior
[14] = herbicide alone, foramsulfuron 29, trifloxysulfuron 27.8, imazaquin 27.5, bispyribac-sodium 70 g ha^−1
[15] = herbicide with PBO 2100 g ha^−1 applied 60 min prior
[16] = herbicide with malathion 1000 g ha^−1 applied 60 min prior

T1 sequence (P17597 86-670): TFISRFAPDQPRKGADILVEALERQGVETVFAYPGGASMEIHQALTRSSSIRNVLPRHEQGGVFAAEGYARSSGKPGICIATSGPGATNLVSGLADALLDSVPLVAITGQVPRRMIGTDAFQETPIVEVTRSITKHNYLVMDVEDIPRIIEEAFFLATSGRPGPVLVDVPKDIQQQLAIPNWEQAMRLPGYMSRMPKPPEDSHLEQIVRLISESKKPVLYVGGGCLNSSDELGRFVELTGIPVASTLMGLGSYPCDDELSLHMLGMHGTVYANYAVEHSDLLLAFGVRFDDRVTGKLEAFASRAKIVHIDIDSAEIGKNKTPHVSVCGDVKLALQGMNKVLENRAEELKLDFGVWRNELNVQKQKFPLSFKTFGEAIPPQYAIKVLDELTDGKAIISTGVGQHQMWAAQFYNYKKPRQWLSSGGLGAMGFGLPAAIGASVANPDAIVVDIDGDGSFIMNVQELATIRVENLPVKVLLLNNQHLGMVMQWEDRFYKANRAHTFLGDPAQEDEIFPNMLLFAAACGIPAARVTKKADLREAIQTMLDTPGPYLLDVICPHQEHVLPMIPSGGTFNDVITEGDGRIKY

| Structure (SMILES) | Resistance factor A205F [2] | Resistance factor A205V [3] | Resistance factor W574L [4] | Annual bluegrass control RP6 [5, 8] [%] | Annual bluegrass control RP6 [5, 9] [%] | Annual bluegrass control RP6 [5, 10] [%] | Annual bluegrass control RP7 [5, 11] [%] | Annual bluegrass control RP7 [5, 12] [%] | Annual bluegrass control RP7 [5, 13] [%] | Annual bluegrass control S [5, 14] [%] | Annual bluegrass control S [5, 15] [%] | Annual bluegrass control S [5, 16] [%] | also measured |
| --- | --- | --- | --- | --- | --- | --- | --- | --- | --- | --- | --- | --- | --- |
| CC(C)C1(C)N=C(c2nc3ccccc3cc2C(=O)O)NC1=O (stereo not shown) [Imazaquin] | 19 | 36 | 65 | 36 | 24 | 32 | 11 | 9 | 8 | 53 | 71 | 64 | IC50 [1]: 1550 nM |
| CCNc1nc(Cl)nc(NCC)n1 [Simazine] |  |  |  |  |  |  |  |  |  |  |  |  | Annual bluegrass biomass RP1 ([6]; RP1, aboveground dry biomass 28 days after treatment, foramsulfuron 29, imazamox 140, simazine 1120 g ha^-1): 124 % of nontreated control; Annual bluegrass control RP1 ([6]; RP1 plants, 28 days after treatment, 2 to 3 leaf stage, foramsulfuron 29, imazamox 140, simazine 1120 g ha^−1): 0%; Annual bluegrass biomass RP2 ([6]; RP2, aboveground dry biomass 28 days after treatment, foramsulfuron 29, imazamox 140, simazine 1120 g ha^-1): 105 % of nontreated control; Annual bluegrass control RP2 ([6]; RP2 plants, 28 days after treatment, 2 to 3 leaf stage, foramsulfuron 29, imazamox 140, simazine 1120 g ha^−1): 0%; Annual bluegrass biomass RP3 ([6]; RP3, aboveground dry biomass 28 days after treatment, foramsulfuron 29, imazamox 140, simazine 1120 g ha^-1): 140 % of nontreated control; Annual bluegrass control RP3 ([6]; RP3 plants, 28 days after treatment, 2 to 3 leaf stage, foramsulfuron 29, imazamox 140, simazine 1120 g ha^−1): 0%; Annual bluegrass biomass RP4 ([6]; RP4, aboveground dry biomass 28 days after treatment, foramsulfuron 29, imazamox 140, simazine 1120 g ha^-1): 95 % of nontreated control; Annual bluegrass control RP4 ([6]; RP4 plants, 28 days after treatment, 2 to 3 leaf stage, foramsulfuron 29, imazamox 140, simazine 1120 g ha^−1): 0%; Annual bluegrass biomass RP5 ([6]; RP5, aboveground dry biomass 28 days after treatment, foramsulfuron 29, imazamox 140, simazine 1120 g ha^-1): 82 % of nontreated control; Annual bluegrass control RP5 ([6]; RP5 plants, 28 days after treatment, 2 to 3 leaf stage, foramsulfuron 29, imazamox 140, simazine 1120 g ha^−1): 0%; Annual bluegrass biomass RP6 ([6]; RP6, aboveground dry biomass 28 days after treatment, foramsulfuron 29, imazamox 140, simazine 1120 g ha^-1): 0 % of nontreated control; Annual bluegrass control RP6 ([6]; RP6 plants, 28 days after treatment, 2 to 3 leaf stage, foramsulfuron 29, imazamox 140, simazine 1120 g ha^−1): 100%; Annual bluegrass biomass RP7 ([6]; RP7, aboveground dry biomass 28 days after treatment, foramsulfuron 29, imazamox 140, simazine 1120 g ha^-1): 99 % of nontreated control; Annual bluegrass control RP7 ([6]; RP7 plants, 28 days after treatment, 2 to 3 leaf stage, foramsulfuron 29, imazamox 140, simazine 1120 g ha^−1): 0%; Annual bluegrass biomass RP8 ([6]; RP8, aboveground dry biomass 28 days after treatment, foramsulfuron 29, imazamox 140, simazine 1120 g ha^-1): 101 % of nontreated control; Annual bluegrass control RP8 ([6]; RP8 plants, 28 days after treatment, 2 to 3 leaf stage, foramsulfuron 29, imazamox 140, simazine 1120 g ha^−1): 0%; Annual bluegrass control S ([6]; susceptible (S) plants, 28 days after treatment, 2 to 3 leaf stage, foramsulfuron 29, imazamox 140, simazine 1120 g ha^−1): 98%; Annual bluegrass biomass S ([6]; susceptible (S), aboveground dry biomass 28 days after treatment, foramsulfuron 29, imazamox 140, simazine 1120 g ha^-1): 5 % of nontreated control; control of POAAN-R3 ([7]; 140 to 9000 g ha^−1): ≤ 20% |
| COc1cc(OC)nc(NC(=O)NS(=O)(=O)c2ncccc2OCC(F)(F)F)n1 [Trifloxysulfuron] | 2983 | 9 | 6447 | 38 | 55 | 49 | 22 | 17 | 28 | 94 | 94 | 92 | IC50 ([1]; concentration for 50 % inhibition of WT enzyme, max inhibitor concentration 1.00 × 10^−04 M, read-out: WT sensitivity [IC50]): 5.9 nM; control of POAAN-R3 ([7]; rates as high as 223 g ha^−1): ≤ 40% |
